{
  "source": "paper PMC8051587",
  "about": "(ACS chemical biology, 2020)",
  "key": {"M2 WT": {"target": "M2 WT", "conditions": "read-out: apparent Ki; block of M2 WT; cited from earlier work"}, "[1]": {"target": "T1, full-length A/Udorn/72 M2 WT (Influenza A virus, UniProt P0DOF5)", "T1 sequence (P0DOF5 whole entry)": "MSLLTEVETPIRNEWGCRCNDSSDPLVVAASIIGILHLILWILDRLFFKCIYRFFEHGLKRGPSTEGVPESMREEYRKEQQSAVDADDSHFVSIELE"}, "[2]": {"target": "T1, full-length A/Udorn/72 M2 WT", "conditions": "100 μM, mean ± SEM at 2 min of drug perfusion; ref [3]; cited from earlier work"}, "A/WSN/33": {"system": "A/WSN/33", "conditions": "plaque reduction assay; cited from earlier work"}},
  "note": "pEC50, pKd, pKi: −log10 of the molar value. Where “and” joins values, the source holds several entries; their conditions need not be identical. Equal entries are not always repeated.",
  "data": [
    {"smiles": "NC12CC3CC(CC(C3)C1)C2", "note": "[Amantadine, amantadine]", "values": [
      {"measurement": "pKi", "setting": "M2 WT", "result": 6.52}
    ]},
    {"smiles": "c1csc(-c2cc(CNC34CC5CC(CC(C5)C3)C4)on2)c1", "note": "[Compound 6]", "values": [
      {"measurement": "pKd", "setting": "[1]; calculated from the ratio koff/kon", "result": "< 4.00"},
      {"measurement": "koff", "setting": "[1]; inferred from extent of block and perfusion-limited block rate", "result": "> 1", "unit": "s⁻¹"},
      {"measurement": "Percent Block (%)", "setting": "[2]", "result": "11% and 11 ± 1^g %"},
      {"measurement": "pEC50", "setting": "A/WSN/33", "result": "~7.00"}
    ]}
  ]
}
